PMC8151276, “An Integrated Approach toward NanoBRET Tracers for Analysis of GPCR Ligand Engagement” (Molecules, 2021)

Target: T1, HTR2B (Homo sapiens, UniProt P41595)
T1 construct: purchased Promega (in-house HiBiT-GPCR construct library, NanoBRET)
Experiment: NanoBRET screen HiBiT-HTR2B in HEK293
Assay type: binding
Experimental: Each tracer candidate was screened across the entire library of HiBiT-GPCR constructs using NanoBRET as the detection modality. As depicted in Figure 4A, the specificity of interactions was evaluated through decrease in BRET due to competitive displacement of a bound tracer by excess parental compound. Each tracer was analyzed for binding to each HiBiT-GPCR fusion in the absence and in the presence of competing parental compound. Briefly, HEK293 cells were transfected with HiBiT-GPCR constructs diluted into promoterless DNA to reduce expression and maximize translocation to the cell surface. Each tracer candidate was then screened at concentrations of 1 μM and 0.1 μM across cells expressing these fusions. Cells were treated for 1.5 h with tracer either alone or in the presence of 20 μM competing parental compound (i.e., control). BRET was measured upon addition of purified LgBiT and subsequent complementation with HiBiT genetically fused to a GPCR. The specificity of interactions was assessed through a decrease in BRET signal due to competitive displacement of the bound tracer. To further gauge the robustness of these interactions, the fold response over the control (i.e., BRETtracer/BRETcontrol) was calculated. We chose a 1.5-fold response, which translates to ≥7-fold signal over noise as the minimal threshold required to score an interaction as positive.
HiBiT-GPCR DNA constructs were diluted in 10 mM Tris pH 8 to a final concentration of 0.01 μg/μL, arrayed in 96-well plates and stored at −20 °C. For transfection, HEK293 cells were suspended in Opti-MEM (without phenol red) supplemented with 2% fetal bovine serum (Seradigm) and 100 units/mL penicillin–streptomycin (Gibco) at a final concentration of 220,000 cells/mL and dispensed into white 96-well plates at 90 μL/well. Subsequent transfections and screens were carried using an Agilent Bravo Automated Liquid Handling Platform. First, the 96-well HiBiT DNA arrays were diluted 25-fold in Opti-MEM (without serum or phenol red) to a final concentration of 0.0004 μg/μL and 20 μL of the diluted DNAs were transferred into new 96-well plates. Next, promoterless carrier DNA (1 μg/μL) was diluted 25-fold (0.04 μg/μL) and then dispensed into the diluted arrays at 20 μL/well. Following brief mixing, Viafect transfection reagent (Promega) diluted 16-fold into Opti-MEM was dispensed into the plates at 40 μL/well. After mixing by pipetting, plates were incubated for 10 min on the pipetting station deck. The DNA-transfection reagent complexes were then added to plates containing cells. To facilitate the screen, 10 μL of DNA-transfection reagent complexes were added in duplicates to the top 4 and bottom 4 rows, resulting in two identical 48-well arrays per plate. Plates with transfected cells were incubated for 18–20 h at 37 °C/5% CO2. A screen of each tracer across the entire library using two different concentrations requires duplicate plates of transfected cells. Depending on the number of tracers being screened, transfections can be scaled up using the same ratios. The next day, for each tracer, four 20× screening solutions in tracer dilution buffer (Promega) were prepared: two duplicates at final concentration of 20 μM and two duplicates at a final concentration of 2 μM. […] The four resulting solutions were diluted 4-fold in Opti-MEM without serum or phenol red to generate 5× solutions (5 µM and 0.5 µM tracer +/− 100 μM competing compound). To screen the library, a BioTek MultiFlo FX liquid dispenser was used to dispense 22.5 µL of tracer solution to the top 4 rows and 22.5 µL tracer + competing compound solution to the 4 bottom rows. Plates were briefly mixed on an orbital shaker and incubated for 1.5 h at room temperature. […] Plates were briefly mixed on an orbital shaker and incubated for 15 min to allow complementation.

T1 sequence (P41595 whole entry): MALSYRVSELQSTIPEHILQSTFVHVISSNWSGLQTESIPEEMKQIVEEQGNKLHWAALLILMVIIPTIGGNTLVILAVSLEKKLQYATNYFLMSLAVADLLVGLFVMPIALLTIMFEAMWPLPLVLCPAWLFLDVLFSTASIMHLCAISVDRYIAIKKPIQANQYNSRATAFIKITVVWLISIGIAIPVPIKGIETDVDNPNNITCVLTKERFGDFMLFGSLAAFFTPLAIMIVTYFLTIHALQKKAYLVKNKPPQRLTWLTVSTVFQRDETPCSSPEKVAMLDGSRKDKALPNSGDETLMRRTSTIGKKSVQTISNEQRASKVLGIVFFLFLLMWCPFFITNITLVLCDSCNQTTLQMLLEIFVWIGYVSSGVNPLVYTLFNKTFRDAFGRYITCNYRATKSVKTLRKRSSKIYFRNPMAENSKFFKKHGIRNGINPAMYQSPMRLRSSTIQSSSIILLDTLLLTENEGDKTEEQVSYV

Row | Structure (SMILES) | NanoBRET Fold Response (HTR2B, tracer 0.1μM) | NanoBRET Fold Response (HTR2B, tracer 1μM) | other results
1 | O=C(CCc1ccc2n1[B-](F)(F)[N+]1=C(c3ccc[nH]3)C=CC1=C2)NCc1ccc(C(=O)NCCOCCC(=O)N[C@@H]2CC[C@@]3(O)[C@H]4Cc5ccc(O)c6c5[C@@]3(CCN4CC3CC3)[C@H]2O6)cc1 [Naltrexone-3-NB590] | 1.13 | 0.98 | –
2 | CCCn1c(=O)c2[nH]c(-c3ccc(OCC(=O)NCCNC(=O)CCOCCNC(=O)c4ccc(CNC(=O)CCc5ccc6n5[B-](F)(F)[N+]5=C(c7ccc[nH]7)C=CC5=C6)cc4)cc3)nc2n(CCC)c1=O [XAC-3-NB590] | 1.29 | 0.78 | –
3 | CC(C)N(CC[C@H](c1ccccc1)c1cc(CCNC(=O)c2ccc(CNC(=O)CCc3ccc4n3[B-](F)(F)[N+]3=C(c5ccc[nH]5)C=CC3=C4)cc2)ccc1O)C(C)C [Tolterodine-BZ-NB590] | 0.83 | 1.07 | –
4 | N#CN/C(=N\CCNC(=O)c1ccc(N)cc1)NCCCOc1cccc(CN2CCCCC2)c1 [Aminopotentidine (unmodified)] | – | – | NanoBRET Fold Response (HTR2B, other tracers/Aminopotentidine (unmodified), 0.1μM): 1.03; NanoBRET Fold Response (HTR2B, other tracers/Aminopotentidine (unmodified), 1μM): 0.97
5 | COc1ccc2[nH]c(-c3ccc(CNC(=O)CCOCCOCCOCCOCCNC(=O)CCc4ccc5n4[B-](F)(F)[N+]4=C(c6ccc[nH]6)C=CC4=C5)cc3)c(CCNC(C)=O)c2n1 [AzomelatoninICO9-2-NB590] | – | – | NanoBRET Fold Response (0.1μM tracer): 0.81; NanoBRET Fold Response (1μM tracer): 1.08
6 | COc1ccccc1N1CCN(CCCCN2C(=O)c3ccc(CNC(=O)CCOCCNC(=O)c4ccc(CNC(=O)CCc5ccc6n5[B-](F)(F)[N+]5=C(c7ccc[nH]7)C=CC5=C6)cc4)cc3C2=O)CC1 [NAN-190-3-NB590] | 0.92 | 0.80 | –
7 | Cc1nc2n(c(=O)c1CCN1CCC(c3noc4cc(F)ccc34)CC1)CCCC2OC(=O)NCCOCCOCCOCCOCCNC(=O)CCc1ccc2n1[B-](F)(F)[N+]1=C(c3ccc[nH]3)C=CC1=C2 (centres unmarked) [Risperidone-2-NB590] | 1.03 | 1.32 | –
8 | O=C(CCOCCOCCOCCOCCNC(=O)CCc1ccc2n1[B-](F)(F)[N+]1=C(c3ccc[nH]3)C=CC1=C2)NCCCN1CCN(C2=Nc3ccccc3Oc3ccc(Cl)cc32)CC1 [Loxapine-a-2-NB590] | 1.04 | 1.25 | –
9 | COc1ccccc1N1CCN(CCCCN2C(=O)c3ccc(CNC(=O)CCOCCOCCOCCOCCNC(=O)CCc4ccc5n4[B-](F)(F)[N+]4=C(c6ccc[nH]6)C=CC4=C5)cc3C2=O)CC1 [NAN-190-2-NB590] | 0.92 | – | –
10 | CC(C)N(CC[C@H](c1ccccc1)c1cc(CCNC(=O)CCOCCOCCOCCOCCNC(=O)CCc2ccc3n2[B-](F)(F)[N+]2=C(c4ccc[nH]4)C=CC2=C3)ccc1O)C(C)C [Tolterodine-2-NB590] | 0.68 | 0.81 | –
11 | N#CN=C(NCCCOc1cccc(CN2CCCCC2)c1)NCCNC(=O)CCOCCOCCOCCOCCNC(=O)CCc1ccc2n1[B-](F)(F)[N+]1=C(c3ccc[nH]3)C=CC1=C2 [Aminopotentidine-2-NB590] | 0.90 | 0.91 | –
12 | CCOC(=O)c1cc(C#N)c(N2CCC(C(=O)NS(=O)(=O)Cc3ccccc3/C=C/C(=O)NCCNC(=O)CCc3ccc4n3[B-](F)(F)[N+]3=C(c5ccc[nH]5)C=CC3=C4)CC2)nc1C [AZD1283-1-NB590] | – | – | NanoBRET Fold Response (HTR2B, 0.1μM): 1.31; NanoBRET Fold Response (HTR2B, 1μM): 1.15
13 | CN(C)CCC=C1c2ccccc2CCc2ccc(C(=O)NCCNC(=O)CCOCCOCCOCCOCCNC(=O)CCc3ccc4n3[B-](F)(F)[N+]3=C(c5ccc[nH]5)C=CC3=C4)cc21 [Amitriptyline-b-2-NB590] | – | – | NanoBRET Fold Response (tracer at 0.1μM, listed as amitriptyline-b-2-NB590): 1.05; NanoBRET Fold Response (tracer at 1μM, listed as amitriptyline-b-2-NB590): 0.74
14 | CN(C)CCC=C1c2ccccc2CCc2ccc(C(=O)NCCNC(=O)CCOCCOCCOCCOCCNC(=O)CCc3ccc4n3[B-](F)(F)[N+]3=C(c5ccc[nH]5)C=CC3=C4)cc21 [Amitriptyline-a-2-NB590] | – | – | NanoBRET Fold Response (tracer at 0.1μM): 0.98; NanoBRET Fold Response (tracer at 1μM): 1.09
15 | O=C(CCc1ccc2n1[B-](F)(F)[N+]1=C(c3ccc[nH]3)C=CC1=C2)NCCOCCOCCNC(=O)OCCOCCN1CCN(C2=Nc3ccccc3Sc3ccccc32)CC1 [Quetiapine-a-2-NB590] | 1.51 | 1.14 | –
16 | Cc1cc2c(s1)Nc1ccccc1N=C2N1CCN(CCCNC(=O)CCOCCOCCOCCOCCNC(=O)CCc2ccc3n2[B-](F)(F)[N+]2=C(c4ccc[nH]4)C=CC2=C3)CC1 [Olanzapine-a-2-NB590] | 1.12 | 1.36 | –
17 | COc1ccc2c(n1)c(CCNC(C)=O)cn2CCNC(=O)CCc1ccc2n1[B-](F)(F)[N+]1=C(c3ccc[nH]3)C=CC1=C2 [Azamelatonin-1-NB590] | – | – | NanoBRET Fold Response (0.1μM tracer): 0.98; NanoBRET Fold Response (1μM tracer): 0.98
18 | CN(CCC=C1c2ccccc2CCc2ccccc21)C(=O)CCOCCOCCOCCOCCNC(=O)CCc1ccc2n1[B-](F)(F)[N+]1=C(c3ccc[nH]3)C=CC1=C2 [Amitriptyline-e-2-NB590] | – | – | NanoBRET Fold Response (tracer at 1μM): 1.02
19 | O=C(CCc1ccc2n1[B-](F)(F)[N+]1=C(c3ccc[nH]3)C=CC1=C2)NCc1ccc(C(=O)NCCOCCOCCNCC(O)COc2cccc3ccccc23)cc1 (centres unmarked) [Propranolol-3-NB590] | – | – | NanoBRET Fold Response (HTR2B, 0.1μM): 1.13; NanoBRET Fold Response (HTR2B, 1μM): 1.00
20 | O=C(CCOCCOCCOCCOCCNC(=O)CCc1ccc2n1[B-](F)(F)[N+]1=C(c3ccc[nH]3)C=CC1=C2)NCCCN1CCN(C2=Nc3cc(Cl)ccc3Nc3ccccc32)CC1 [Clozapine-a-2-NB590] | – | – | NanoBRET Fold Response (HTR2B, 0.1μM tracer): 1.08; NanoBRET Fold Response (HTR2B, 1μM tracer): 1.14
